Experimental data from patent US7626031B2, “Substituted 3-(diarylmethylene)indolin-2-ones and methods of their use” (Symphony Evolution, Inc., priority 2002, dated 2009).

Columns and labels:
[1] = molecular target: T1, KDR (baculovirus expressed human KDR kinase domain D807-V1356) (Homo sapiens, UniProt P35968); test: biochemical
T1 construct: human KDR kinase domain D807-V1356; host or cells: baculovirus expression system
Procedure, shortened: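 Baculovirus human KDR kinase domain (D807–V1356) with ATP near its KM; 10-point dose-response, 4 h at ambient temperature. Activity taken as percent ATP remaining, detected by luciferase–luciferin chemiluminescence.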

[2] = molecular target: c-Kit kinase (Homo sapiens, UniProt P10721); test: c-Kit AlphaScreen kinase assay; assay type: biochemical
c-Kit kinase, sequence (P10721 26-976): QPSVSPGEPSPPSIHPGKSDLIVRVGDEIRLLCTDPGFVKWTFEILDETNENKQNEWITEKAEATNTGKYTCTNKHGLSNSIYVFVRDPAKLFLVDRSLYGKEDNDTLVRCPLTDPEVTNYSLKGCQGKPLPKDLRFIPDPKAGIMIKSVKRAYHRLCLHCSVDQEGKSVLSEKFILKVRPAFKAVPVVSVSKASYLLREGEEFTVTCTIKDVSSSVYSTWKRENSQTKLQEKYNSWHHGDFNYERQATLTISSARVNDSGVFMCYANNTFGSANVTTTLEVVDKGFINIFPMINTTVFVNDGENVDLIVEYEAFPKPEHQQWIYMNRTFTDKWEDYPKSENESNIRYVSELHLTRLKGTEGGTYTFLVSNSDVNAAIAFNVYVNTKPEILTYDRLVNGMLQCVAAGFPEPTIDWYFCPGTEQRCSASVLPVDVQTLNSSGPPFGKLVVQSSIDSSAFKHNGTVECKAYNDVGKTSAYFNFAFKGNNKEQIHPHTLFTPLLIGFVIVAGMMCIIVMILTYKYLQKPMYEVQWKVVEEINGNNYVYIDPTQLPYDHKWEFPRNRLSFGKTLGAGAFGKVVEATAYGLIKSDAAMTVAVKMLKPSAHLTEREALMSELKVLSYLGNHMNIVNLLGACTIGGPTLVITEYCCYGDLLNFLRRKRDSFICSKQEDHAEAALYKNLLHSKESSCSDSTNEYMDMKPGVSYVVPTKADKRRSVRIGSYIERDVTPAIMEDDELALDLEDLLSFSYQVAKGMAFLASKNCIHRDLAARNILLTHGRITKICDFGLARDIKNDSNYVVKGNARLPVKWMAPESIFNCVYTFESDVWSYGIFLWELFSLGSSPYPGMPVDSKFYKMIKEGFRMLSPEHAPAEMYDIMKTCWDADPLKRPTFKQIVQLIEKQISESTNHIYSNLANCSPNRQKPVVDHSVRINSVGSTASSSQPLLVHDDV
Method: (§1) Kinase activity and compound inhibition are investigated using one or more assay formats. The ATP concentrations for each assay are selected to be close to the Michaelis-Menten constant (KM) for each individual kinase. Dose-response experiments are performed at 10 different inhibitor concentrations in a 384-well plate format. […] Exemplary kinase assays are described below. KDR Assay
c-Kit biochemical activity was assessed using AlphaScreen™ (Perkin Elmer) technology, described above. Test compounds, ATP, biotinylated poly(Glu, Tyr) and c-Kit kinase were combined in a volume of 20 μL in a 384-well white, medium binding microtiter plate (Greiner). Reaction mixtures were incubated for 1 hr at ambient temperature. Reactions were quenched by addition of 10 uL of […] AlphaScreen bead suspension containing 75 mM Hepes, pH 7.4, 300 mM NaCl, 120 mM EDTA, 0.3% BSA and 0.03% Tween-20. After 16 hr incubation at ambient temperature plates were read using an AlphaQuest reader (Perkin Elmer).

[3] = molecular target: EphA2 (Homo sapiens, UniProt P29317); test: Kinase assay, EphA2 (33P-ATP incorporation or luciferase-coupled ATP consumption); assay type: biochemical
EphA2, sequence (P29317 24-976, species assumed): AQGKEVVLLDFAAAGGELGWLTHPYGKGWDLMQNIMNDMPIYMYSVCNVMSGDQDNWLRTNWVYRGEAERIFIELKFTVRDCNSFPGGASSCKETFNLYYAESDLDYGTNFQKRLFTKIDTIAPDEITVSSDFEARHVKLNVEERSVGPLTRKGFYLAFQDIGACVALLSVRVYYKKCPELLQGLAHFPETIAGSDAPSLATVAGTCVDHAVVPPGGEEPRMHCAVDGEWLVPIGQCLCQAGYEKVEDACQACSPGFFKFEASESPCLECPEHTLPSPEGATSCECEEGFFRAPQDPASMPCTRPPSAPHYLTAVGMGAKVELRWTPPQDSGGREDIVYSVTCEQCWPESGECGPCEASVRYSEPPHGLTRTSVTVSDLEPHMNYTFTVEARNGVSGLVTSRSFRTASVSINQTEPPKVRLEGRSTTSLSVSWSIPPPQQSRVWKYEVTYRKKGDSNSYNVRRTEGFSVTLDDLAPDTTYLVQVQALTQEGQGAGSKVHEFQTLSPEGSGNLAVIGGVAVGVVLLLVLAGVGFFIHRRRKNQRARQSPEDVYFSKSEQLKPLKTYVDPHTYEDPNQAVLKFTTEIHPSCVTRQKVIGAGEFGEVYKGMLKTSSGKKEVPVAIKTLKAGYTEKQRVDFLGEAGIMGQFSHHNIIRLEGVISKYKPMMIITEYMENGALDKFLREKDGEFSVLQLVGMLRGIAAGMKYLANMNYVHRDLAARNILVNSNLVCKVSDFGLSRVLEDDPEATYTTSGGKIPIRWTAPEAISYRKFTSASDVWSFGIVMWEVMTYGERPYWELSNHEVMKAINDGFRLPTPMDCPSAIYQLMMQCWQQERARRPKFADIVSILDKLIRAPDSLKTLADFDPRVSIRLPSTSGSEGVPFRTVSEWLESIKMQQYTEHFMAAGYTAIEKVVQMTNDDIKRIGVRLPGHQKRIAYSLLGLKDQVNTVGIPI
Procedure, shortened: (§2)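 Radiometric format: γ-33P ATP incorporation into plate-immobilized myelin basic protein, enzyme 10 nM or 20 nM, 10 μM or 30 μM unlabeled ATP, 1 h at room temperature, 1% DMSO, scintillation counting; alternatively luciferase-measured ATP consumption with pEY substrate. ATP set near each kinase's KM; 10-point dose-response.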

[4] = molecular target: EGFR (Homo sapiens, UniProt P00533); test: Kinase assay, EGFR (33P-ATP incorporation or luciferase-coupled ATP consumption); assay type: biochemical
Procedure, shortened: as §2

[5] = molecular target: FGFR1 (Homo sapiens, UniProt P11362); test: Kinase assay, FGFR1 (33P-ATP incorporation or luciferase-coupled ATP consumption); assay type: biochemical
FGFR1, sequence (P11362 22-822, species assumed): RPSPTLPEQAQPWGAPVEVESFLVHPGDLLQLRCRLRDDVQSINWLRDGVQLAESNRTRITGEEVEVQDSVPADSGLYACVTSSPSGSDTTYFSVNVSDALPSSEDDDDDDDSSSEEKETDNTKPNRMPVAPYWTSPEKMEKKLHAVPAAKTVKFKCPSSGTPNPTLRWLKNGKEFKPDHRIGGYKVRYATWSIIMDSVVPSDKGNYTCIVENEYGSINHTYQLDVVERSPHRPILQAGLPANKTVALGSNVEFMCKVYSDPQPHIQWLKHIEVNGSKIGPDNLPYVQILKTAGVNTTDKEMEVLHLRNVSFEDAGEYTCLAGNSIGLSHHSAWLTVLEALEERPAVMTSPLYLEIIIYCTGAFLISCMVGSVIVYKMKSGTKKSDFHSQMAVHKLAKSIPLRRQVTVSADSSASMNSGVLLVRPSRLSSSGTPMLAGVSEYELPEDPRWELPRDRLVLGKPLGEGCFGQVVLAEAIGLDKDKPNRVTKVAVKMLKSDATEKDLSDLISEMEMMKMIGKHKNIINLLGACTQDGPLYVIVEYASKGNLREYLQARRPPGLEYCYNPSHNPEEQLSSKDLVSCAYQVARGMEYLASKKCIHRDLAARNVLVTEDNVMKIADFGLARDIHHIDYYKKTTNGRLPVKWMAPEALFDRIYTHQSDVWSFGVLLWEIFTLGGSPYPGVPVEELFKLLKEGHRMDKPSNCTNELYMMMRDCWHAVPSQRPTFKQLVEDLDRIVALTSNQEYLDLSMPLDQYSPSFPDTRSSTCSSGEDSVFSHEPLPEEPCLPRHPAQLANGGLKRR
Procedure, shortened: as §2

[6] = molecular target: PDGFR alpha (Homo sapiens, UniProt P16234); test: Kinase assay, PDGFR alpha (33P-ATP incorporation or luciferase-coupled ATP consumption); assay type: biochemical; settings: read-out: PDGF-R-A IC50
PDGFR alpha, sequence (P16234 24-1089): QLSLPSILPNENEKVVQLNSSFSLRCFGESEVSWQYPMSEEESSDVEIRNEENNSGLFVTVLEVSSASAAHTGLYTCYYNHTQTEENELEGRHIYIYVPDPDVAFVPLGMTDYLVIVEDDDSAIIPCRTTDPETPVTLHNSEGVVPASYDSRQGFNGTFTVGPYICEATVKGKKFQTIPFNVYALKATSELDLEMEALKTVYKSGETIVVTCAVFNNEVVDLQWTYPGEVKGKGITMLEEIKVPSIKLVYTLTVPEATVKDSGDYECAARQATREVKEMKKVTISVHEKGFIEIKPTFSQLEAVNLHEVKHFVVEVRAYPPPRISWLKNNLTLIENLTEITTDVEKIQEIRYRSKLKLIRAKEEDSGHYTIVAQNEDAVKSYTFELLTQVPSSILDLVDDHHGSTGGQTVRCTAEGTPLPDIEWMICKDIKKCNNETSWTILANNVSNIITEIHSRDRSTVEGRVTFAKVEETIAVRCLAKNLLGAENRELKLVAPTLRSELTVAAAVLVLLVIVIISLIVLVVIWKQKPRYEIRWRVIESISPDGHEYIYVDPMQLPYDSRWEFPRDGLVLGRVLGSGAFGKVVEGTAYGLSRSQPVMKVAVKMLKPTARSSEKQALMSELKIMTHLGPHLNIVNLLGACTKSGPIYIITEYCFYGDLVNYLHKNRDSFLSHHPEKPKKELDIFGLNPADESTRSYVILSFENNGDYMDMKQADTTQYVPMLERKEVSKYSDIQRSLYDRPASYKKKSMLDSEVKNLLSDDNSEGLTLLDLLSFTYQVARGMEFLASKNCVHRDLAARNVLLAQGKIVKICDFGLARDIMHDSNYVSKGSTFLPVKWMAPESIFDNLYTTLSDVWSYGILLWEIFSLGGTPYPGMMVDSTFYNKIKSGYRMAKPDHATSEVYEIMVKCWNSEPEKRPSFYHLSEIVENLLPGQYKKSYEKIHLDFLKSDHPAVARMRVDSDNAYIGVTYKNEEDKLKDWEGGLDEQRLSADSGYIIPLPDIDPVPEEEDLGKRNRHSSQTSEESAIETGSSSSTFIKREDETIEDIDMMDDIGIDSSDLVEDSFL
Procedure, shortened: as §2

[7] = molecular target: Fyn (Homo sapiens, UniProt P06241); test: Kinase assay, Fyn; assay type: biochemical
Fyn, sequence (P06241 whole entry, species assumed): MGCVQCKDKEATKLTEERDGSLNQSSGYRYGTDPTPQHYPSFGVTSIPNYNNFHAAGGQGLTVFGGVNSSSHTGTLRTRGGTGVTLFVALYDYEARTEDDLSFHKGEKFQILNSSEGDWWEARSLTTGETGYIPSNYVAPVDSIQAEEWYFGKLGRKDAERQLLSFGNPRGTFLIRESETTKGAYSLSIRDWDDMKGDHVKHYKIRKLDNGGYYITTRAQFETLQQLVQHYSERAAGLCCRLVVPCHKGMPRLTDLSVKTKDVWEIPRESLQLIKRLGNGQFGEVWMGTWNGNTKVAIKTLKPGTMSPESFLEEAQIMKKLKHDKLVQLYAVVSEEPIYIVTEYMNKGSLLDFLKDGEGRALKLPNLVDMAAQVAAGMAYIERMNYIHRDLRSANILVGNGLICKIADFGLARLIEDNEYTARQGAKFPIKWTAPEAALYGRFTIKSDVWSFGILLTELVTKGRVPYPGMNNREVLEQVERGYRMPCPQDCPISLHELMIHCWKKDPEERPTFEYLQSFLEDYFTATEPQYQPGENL
Method: as §1

[8] = molecular target: IRK (Homo sapiens, UniProt P06213); test: Kinase assay, IRK; assay type: biochemical
Method: as §1

T1 sequence (P35968 807-1356): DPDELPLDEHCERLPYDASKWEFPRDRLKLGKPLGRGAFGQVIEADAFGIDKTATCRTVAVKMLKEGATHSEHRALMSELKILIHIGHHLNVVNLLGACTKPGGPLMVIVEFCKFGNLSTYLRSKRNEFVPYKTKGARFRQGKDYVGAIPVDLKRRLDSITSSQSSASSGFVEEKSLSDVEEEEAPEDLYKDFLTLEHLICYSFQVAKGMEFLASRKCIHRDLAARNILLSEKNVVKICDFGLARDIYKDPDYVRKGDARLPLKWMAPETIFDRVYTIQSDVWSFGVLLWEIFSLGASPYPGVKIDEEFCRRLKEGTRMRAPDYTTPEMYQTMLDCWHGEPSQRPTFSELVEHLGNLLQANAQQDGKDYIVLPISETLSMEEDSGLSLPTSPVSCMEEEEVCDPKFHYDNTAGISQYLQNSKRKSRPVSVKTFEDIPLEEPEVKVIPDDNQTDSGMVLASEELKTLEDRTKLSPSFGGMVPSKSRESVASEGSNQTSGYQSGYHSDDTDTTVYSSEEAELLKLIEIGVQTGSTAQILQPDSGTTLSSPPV

CCN1CCC(Nc2ccc3c(c2)/C(=C(\c2cc(F)cc(F)c2)c2ncc[nH]2)C(=O)N3)CC1 [Entry 73, (3Z)-3-[(3,5-difluorophenyl)(1H-imidazol-2-yl)methylidene]-5-[(1-ethylpiperidin-4-yl)amino]-1,3-dihydro-2H-indol-2-one]
IC50 [1]: < 50 nM | IC50 [2]: 50 to 500 nM | IC50 [3]: 500 to 5000 nM | IC50 [4]: 50 to 500 nM | IC50 [5]: < 50 nM | IC50 [6]: < 50 nM | IC50 [7]: < 50 nM | IC50 [8]: > 5000 nM

CCN1CCC(Nc2ccc3c(c2)/C(=C(/c2ncc[nH]2)c2ccc(C(F)(F)F)cc2F)C(=O)N3)CC1 [Entry 100, (3Z)-5-[(1-ethylpiperidin-4-yl)amino]-3-[[2-fluoro-4-(trifluoromethyl)phenyl] (1H-imidazol-2-yl)methylidene]-1,3-dihydro-2H-indol-2-one]
IC50 [1]: < 50 nM | IC50 [2]: < 50 nM | IC50 [3]: 500 to 5000 nM | IC50 [4]: 50 to 500 nM | IC50 [5]: < 50 nM | IC50 [6]: < 50 nM | IC50 [7]: < 50 nM | IC50 [8]: 500 to 5000 nM

CCN1CCC(Nc2ccc3c(c2)/C(=C(\c2ccc(C(F)(F)F)cc2)c2nc(C)c[nH]2)C(=O)N3)CC1 [Entry 101]
IC50 [1]: < 50 nM | IC50 [2]: 50 to 500 nM | IC50 [3]: 500 to 5000 nM | IC50 [4]: 50 to 500 nM | IC50 [5]: < 50 nM | IC50 [6]: < 50 nM | IC50 [7]: < 50 nM | IC50 [8]: 500 to 5000 nM

CCN1CCC(Nc2ccc3c(c2)/C(=C(\c2ccc(C(F)(F)F)c(F)c2)c2nc(C)c[nH]2)C(=O)N3)CC1 [Entry 103, (3Z)-5-[(1-ethylpiperidin-4-yl)amino]-3-[[3-fluoro-4-(trifluoromethyl)phenyl](4-methyl-1H-imidazol-2-yl)methylidene]-1,3-dihydro-2H-indol-2-one]
IC50 [1]: < 50 nM | IC50 [2]: 50 to 500 nM | IC50 [3]: 500 to 5000 nM | IC50 [4]: < 50 nM | IC50 [5]: < 50 nM | IC50 [7]: < 50 nM | IC50 [8]: 500 to 5000 nM

CCN1CCC(Nc2ccc3c(c2)/C(=C(\c2ccc(F)c(F)c2)c2nc(C)c[nH]2)C(=O)N3)CC1 [Entry 104, (3Z)-3-[(3,4-difluorophenyl)(4-methyl-1H-imidazol-2-yl)methylidene]-5-[(1-ethylpiperidin-4-yl)amino]-1,3-dihydro-2H-indol-2-one]
IC50 [1]: < 50 nM | IC50 [2]: 50 to 500 nM | IC50 [3]: 500 to 5000 nM | IC50 [4]: < 50 nM | IC50 [5]: < 50 nM | IC50 [6]: < 50 nM | IC50 [7]: < 50 nM | IC50 [8]: > 5000 nM

CCN1CCC(Nc2ccc3c(c2)/C(=C(\c2ccc(F)c(Cl)c2)c2nc(C)c[nH]2)C(=O)N3)CC1 [Entry 105, (3Z)-3-[(3-chloro-4-fluorophenyl)(4-methyl-1H-imidazol-2-yl)methylidene]-5-[(1-ethylpiperidin-4-yl)amino]-1,3-dihydro-2H-indol-2-one]
IC50 [1]: < 50 nM | IC50 [2]: 50 to 500 nM | IC50 [3]: 500 to 5000 nM | IC50 [4]: 50 to 500 nM | IC50 [5]: < 50 nM | IC50 [6]: < 50 nM | IC50 [7]: < 50 nM | IC50 [8]: 500 to 5000 nM

CCN1CCC(Nc2ccc3c(c2)/C(=C(\c2ccc(F)cc2)c2nc(C)c[nH]2)C(=O)N3)CC1 [Entry 106, (3Z)-5-[(1-ethylpiperidin-4-yl)amino]-3-[(4-fluorophenyl)(4-methyl-1H-imidazol-2-yl)methylidene]-1,3-dihydro-2H-indol-2-one]
IC50 [1]: < 50 nM | IC50 [2]: 50 to 500 nM | IC50 [3]: 500 to 5000 nM | IC50 [4]: 50 to 500 nM | IC50 [5]: 50 to 500 nM | IC50 [6]: < 50 nM | IC50 [7]: < 50 nM | IC50 [8]: 500 to 5000 nM

CCN1CCC(Nc2ccc3c(c2)/C(=C(/c2ncc[nH]2)c2ccccc2F)C(=O)N3)CC1 [Entry 107, (3Z)-5-[(1-ethylpiperidin-4-yl)amino]-3-[(2-fluorophenyl)(1H-imidazol-2-yl)methylidene]-1,3-dihydro-2H-indol-2-one]
IC50 [1]: < 50 nM | IC50 [2]: < 50 nM | IC50 [3]: 500 to 5000 nM | IC50 [4]: 50 to 500 nM | IC50 [5]: < 50 nM | IC50 [6]: < 50 nM | IC50 [7]: < 50 nM | IC50 [8]: 500 to 5000 nM

CCN1CCC(Nc2ccc3c(c2)/C(=C(/c2nc(C)c[nH]2)c2ccc(C(F)(F)F)cc2F)C(=O)N3)CC1 [Entry 108, (3Z)-5-[(1-ethylpiperidin-4-yl)amino]-3-[[2-fluoro-4-(trifluoromethyl)phenyl] (4-methyl-1H-imidazol-2-yl)methylidene]-1,3-dihydro-2H-indol-2-one]
IC50 [1]: < 50 nM | IC50 [2]: < 50 nM | IC50 [3]: 500 to 5000 nM | IC50 [4]: 50 to 500 nM | IC50 [5]: < 50 nM | IC50 [6]: < 50 nM | IC50 [7]: < 50 nM | IC50 [8]: 500 to 5000 nM
